{"source": "patent EP0888055B1", "about": "“HERBICIDAL COMPOSITION AND METHOD OF WEED CONTROL” (Novartis AG, priority 1996, dated 1997)", "key": {"Maize [1]": {"system": "Maize", "assay": "Breakdown in treated useful plants", "conditions": "after application of the compositions; especially maize; compared with metolachlor"}, "Brachiaria [2]": {"system": "Brachiaria", "assay": "Pre-emergence test (Example B2)", "format": "in vivo", "conditions": "60 g active ingredient/ha, 34 days", "description": "(§1) The expected herbicidal action E for a given combination of two herbicides can be calculated as follows (see COLBY, S.R., \"Calculating synergistic and antagonistic response of herbicide combinations\", Weeds 15, pages 20-22, 1967): E = X +(Y • (100 - X))/(100) [formula]\n(§2) In the above formula: X = percentage growth inhibition in the case of treatment with the compound of formula A at a rate of application of p kg per hectare compared with the untreated control (= 0 %). Y = percentage herbicidal action in the case of treatment with one of the mixing partners at a rate of application of q kg per hectare compared with the untreated control. E = Expected herbicidal action (percentage herbicidal action compared with the untreated control) after treatment with the compounds of formulae A and the mixing partners at a rate of application of p + q kg of active ingredient per hectare.\n(§3) The test plants are sown in plastics pots in standard soil. Directly after sowing the test compounds are applied by spraying, separately or in admixture, in the form of an aqueous suspension of the test compounds (Formulation Example F8, c) and d)) or in the form of an emulsion concentrate (Formulation Example F1, d)) in 500 l of water/ha. The rates of application conform to the optimum concentrations ascertained under field conditions and greenhouse conditions. The test plants are then cultivated in the greenhouse under optimum conditions. After 34 days' (Tables B2 to B5) and 41 days' (Table B6) test duration, the test is evaluated (% action, 100 % = plants have died, 0 % = no phytotoxic action). From 61 to 80 % (especially from 81 to 100 %) phytotoxicity indicates good to very good herbicidal action in weeds; from 0 to 15 % (especially from 0 to 5 %) phytotoxicity indicates good to very good tolerance in useful plants."}, "Sida": {"system": "Sida", "assay": "Pre-emergence test (Example B2)", "format": "in vivo", "description": "as §1, §2, §3\n(§4) Test plants: abutilon, bidens, euphorbia, ipomoea, sesbamia, xanthium, rottboellia, sida, Sorghum bicolor."}, "Bidens": {"system": "Bidens", "assay": "Pre-emergence test (Example B2)", "format": "in vivo", "conditions": "34 days", "description": "as §1, §2, §3, §4"}, "Rottboellia": {"system": "Rottboellia", "assay": "Pre-emergence test (Example B2)", "format": "in vivo", "description": "as §1, §2, §3, §4"}, "Euphorbia": {"system": "Euphorbia", "assay": "Pre-emergence test (Example B2)", "format": "in vivo", "description": "as §1, §2, §3, §4"}, "Sesbania": {"system": "Sesbania", "assay": "Pre-emergence test (Example B2)", "format": "in vivo", "conditions": "60 g active ingredient/ha, 34 days", "description": "as §1, §2, §3, §4"}, "Abutilon": {"system": "Abutilon", "assay": "Pre-emergence test (Example B2)", "format": "in vivo", "description": "as §1, §2, §3, §4"}, "Ipomoea": {"system": "Ipomoea", "assay": "Pre-emergence test (Example B2)", "format": "in vivo", "description": "as §1, §2, §3, §4"}, "Xanthium": {"system": "Xanthium", "assay": "Pre-emergence test (Example B2)", "format": "in vivo", "conditions": "34 days", "description": "as §1, §2, §3, §4"}, "Sorghum bic.": {"system": "Sorghum bic.", "assay": "Pre-emergence test (Example B2)", "format": "in vivo, Sorghum bicolor", "conditions": "8 g active ingredient/ha, 41 days", "description": "as §1, §2\nThe test plants are sown in plastics pots in standard soil. Directly after sowing the test compounds are applied by spraying, separately or in admixture, in the form of an aqueous suspension of the test compounds (Formulation Example F8, c) and d)) or in the form of an emulsion concentrate (Formulation Example F1, d)) in 500 l of water/ha. […] After 34 days' (Tables B2 to B5) and 41 days' (Table B6) test duration, the test is evaluated (% action, 100 % = plants have died, 0 % = no phytotoxic action). […]"}, "Cyperus": {"system": "Cyperus", "assay": "Post-emergence test (Example B1)", "format": "in vivo", "conditions": "24 days", "description": "as §1\nIn the above formula: X = percentage growth inhibition in the case of treatment with the compound of formula A at a rate of application of p kg per hectare compared with the untreated control (= 0 %). Y = percentage herbicidal action in the case of treatment with one of the mixing partners at a rate of application of q kg per hectare compared with the untreated control.\n(§5) The test plant seeds are grown to the 4- to 6-leaf stage under greenhouse conditions in plastics pots. The culture substrate used is a standard soil. At the 4- to 6-leaf stage the herbicides are applied separately and in admixture to the test plants. The test compounds are applied in the form of an aqueous suspension (Formulation Example F8, c)) in 500 l of water/ha. The rates of application conform to the optimum concentrations ascertained under field conditions and greenhouse conditions. Evaluation of the tests is carried out after 24 days.\n(§6) Test plants: brachiaria, cyperus, digitaria, echinochloa, panicum."}, "Maize [3]": {"system": "Maize", "assay": "Pre-emergence test (Example B2), tolerance of useful plant", "format": "in vivo", "description": "as §3"}, "Echinochloa": {"system": "Echinochloa", "assay": "Post-emergence test (Example B1)", "format": "in vivo", "conditions": "24 days", "description": "as §1, §2\nas §5, with “days. The following linear scale is used as a measure (% action): • 100 % = plants have died • 50 % = moderate action • 0 % = no phytotoxic action (as untreated control).” for “days.”\nas §6"}, "Brachiaria [4]": {"system": "Brachiaria", "assay": "Post-emergence test (Example B1)", "format": "in vivo", "conditions": "24 days", "description": "as §1, §2\nas §5, with “days. The following linear scale is used as a measure (% action): • 100 % = plants have died • 50 % = moderate action • 0 % = no phytotoxic action (as untreated control).” for “days.”\nas §6"}, "Digitaria": {"system": "Digitaria", "assay": "Post-emergence test (Example B1)", "format": "in vivo", "conditions": "24 days", "description": "as §1, §2\nas §5, with “days. The following linear scale is used as a measure (% action): • 100 % = plants have died • 50 % = moderate action • 0 % = no phytotoxic action (as untreated control).” for “days.”\nas §6"}, "Panicum": {"system": "Panicum", "assay": "Post-emergence test (Example B1)", "format": "in vivo", "conditions": "24 days", "description": "as §1, §2\nas §5, with “days. The following linear scale is used as a measure (% action): • 100 % = plants have died • 50 % = moderate action • 0 % = no phytotoxic action (as untreated control).” for “days.”\nas §6"}, "[5]": {"conditions": "8 g active ingredient/ha, 41 days"}, "[6]": {"conditions": "15 g active ingredient/ha, 34 days"}, "[7]": {"conditions": "30 g active ingredient/ha, 41 days"}, "[8]": {"conditions": "60 g active ingredient/ha, 34 days"}, "[9]": {"conditions": "60 g active ingredient/ha, 41 days"}, "[10]": {"conditions": "15 g active ingredient/ha, 41 days"}, "[11]": {"conditions": "30 g active ingredient/ha, 34 days"}}, "data": [{"smiles": "C=CCOC(=O)C(C)(C)OC(=O)c1cc(-n2c(=O)cc(C(F)(F)F)n(C)c2=O)ccc1Cl", "note": "[A]", "values": [{"measurement": "breakdown in the useful plants treated", "setting": "Maize [1]", "result": "broken down more rapidly"}, {"measurement": "Herbicidal activity, Weed: Brachiaria", "setting": "Brachiaria [2]", "result": 60, "unit": "%"}, {"measurement": "Herbicidal activity, Weed: Sida", "setting": "Sida; [5]", "result": 40, "unit": "%"}, {"measurement": "Herbicidal activity, Weed: Sida", "setting": "Sida; [6]", "result": 80, "unit": "%"}, {"measurement": "Herbicidal activity, Weed: Bidens", "setting": "Bidens; 15 g active ingredient/ha", "result": 20, "unit": "%"}, {"measurement": "Herbicidal activity, Weed: Bidens", "setting": "Bidens; 30 g active ingredient/ha", "result": 30, "unit": "%"}, {"measurement": "Herbicidal activity, Weed: Bidens", "setting": "Bidens; 60 g active ingredient/ha", "result": 90, "unit": "%"}, {"measurement": "Herbicidal activity, Weed: Rottboellia", "setting": "Rottboellia; [7]", "result": 80, "unit": "%"}, {"measurement": "Herbicidal activity, Weed: Rottboellia", "setting": "Rottboellia; [8]", "result": 30, "unit": "%"}, {"measurement": "Herbicidal activity, Weed: Rottboellia", "setting": "Rottboellia; [9]", "result": 70, "unit": "%"}, {"measurement": "Herbicidal activity, Weed: Euphorbia", "setting": "Euphorbia; [6]", "result": 0, "unit": "%"}, {"measurement": "Herbicidal activity, Weed: Euphorbia", "setting": "Euphorbia; [10]", "result": 85, "unit": "%"}, {"measurement": "Herbicidal activity, Weed: Euphorbia", "setting": "Euphorbia; [11]", "result": 90, "unit": "%"}, {"measurement": "Herbicidal activity, Weed: Sesbania", "setting": "Sesbania", "result": 50, "unit": "%"}, {"measurement": "Herbicidal activity, Weed: Abutilon", "setting": "Abutilon; [5]", "result": 50, "unit": "%"}, {"measurement": "Herbicidal activity, Weed: Abutilon", "setting": "Abutilon; [6]", "result": 20, "unit": "%"}, {"measurement": "Herbicidal activity, Weed: Abutilon", "setting": "Abutilon; [10]", "result": 80, "unit": "%"}, {"measurement": "Herbicidal activity, Weed: Abutilon", "setting": "Abutilon; [11]", "result": 40, "unit": "%"}, {"measurement": "Herbicidal activity, Weed: Ipomoea", "setting": "Ipomoea; [11]", "result": 20, "unit": "%"}, {"measurement": "Herbicidal activity, Weed: Ipomoea", "setting": "Ipomoea; [7]", "result": 0, "unit": "%"}, {"measurement": "Herbicidal activity, Weed: Ipomoea", "setting": "Ipomoea; [8]", "result": 30, "unit": "%"}, {"measurement": "Herbicidal activity, Weed: Xanthium", "setting": "Xanthium; 15 g active ingredient/ha", "result": 0, "unit": "%"}, {"measurement": "Herbicidal activity, Weed: Xanthium", "setting": "Xanthium; 30 g active ingredient/ha", "result": 0, "unit": "%"}, {"measurement": "Herbicidal activity, Weed: Xanthium", "setting": "Xanthium; 60 g active ingredient/ha", "result": 20, "unit": "%"}, {"measurement": "Herbicidal activity, Weed: Sorghum bic.", "setting": "Sorghum bic.", "result": 0, "unit": "%"}, {"measurement": "Herbicidal activity, Weed: Cyperus", "setting": "Cyperus; 50 g active ingredient/ha", "result": 50, "unit": "%"}, {"measurement": "Herbicidal activity, Weed: Cyperus", "setting": "Cyperus; 100 g active ingredient/ha", "result": 60, "unit": "%"}, {"measurement": "Herbicidal activity, Useful plant: Maize", "setting": "Maize [3]; [5]", "result": 0, "unit": "%"}, {"measurement": "Herbicidal activity, Useful plant: Maize", "setting": "Maize [3]; [6]", "result": 0, "unit": "%"}, {"measurement": "Herbicidal activity, Useful plant: Maize", "setting": "Maize [3]; [10]", "result": 0, "unit": "%"}, {"measurement": "Herbicidal activity, Useful plant: Maize", "setting": "Maize [3]; [11]", "result": 10, "unit": "%"}, {"measurement": "Herbicidal activity, Useful plant: Maize", "setting": "Maize [3]; [8]", "result": 10, "unit": "%"}, {"measurement": "Herbicidal activity, Useful plant: Maize", "setting": "Maize [3]; [9]", "result": 40, "unit": "%"}, {"measurement": "Herbicidal activity, Weed: Echinochloa", "setting": "Echinochloa; 100 g active ingredient/ha", "result": 15, "unit": "%"}, {"measurement": "Herbicidal activity, Weed: Echinochloa", "setting": "Echinochloa; 200 g active ingredient/ha", "result": 45, "unit": "%"}, {"measurement": "Herbicidal activity, Weed: Brachiaria", "setting": "Brachiaria [4]; 100 g active ingredient/ha", "result": 10, "unit": "%"}, {"measurement": "Herbicidal activity, Weed: Brachiaria", "setting": "Brachiaria [4]; 200 g active ingredient/ha", "result": 15, "unit": "%"}, {"measurement": "Herbicidal activity, Weed: Digitaria", "setting": "Digitaria; 50 g active ingredient/ha", "result": 85, "unit": "%"}, {"measurement": "Herbicidal activity, Weed: Digitaria", "setting": "Digitaria; 100 g active ingredient/ha", "result": 90, "unit": "%"}, {"measurement": "Herbicidal activity, Weed: Digitaria", "setting": "Digitaria; 200 g active ingredient/ha", "result": 90, "unit": "%"}, {"measurement": "Herbicidal activity, Weed: Panicum", "setting": "Panicum; 50 g active ingredient/ha", "result": 50, "unit": "%"}, {"measurement": "Herbicidal activity, Weed: Panicum", "setting": "Panicum; 200 g active ingredient/ha", "result": 70, "unit": "%"}]}]}
